Patent US20250049035A1, “MICROBIOCIDAL BICYCLE HETEROCYCLIC DERIVATIVES” (SYNGENTA CROP PROTECTION AG, priority 2021, published 2025)

Tests used:
[1] = tested on: Botryotinia fuckeliana (Botrytis cinerea); experiment: Botryotinia fuckeliana (Botrytis cinerea) / liquid culture (gray mould); format: cell-based; conditions: liquid culture (Vogels broth), growth inhibition photometrically 3-4 days after application, compared to untreated control
Protocol: Example B2: Botryotinia fuckeliana (Botrytis cinerea)/Liquid Culture (Gray Mould) Conidia of the fungus from cryogenic storage are directly mixed into a nutrient broth (Vogels broth). After placing a DMSO solution of test compound into a microtiter plate (96-well format), the nutrient broth containing the fungal spores is added. The test plates are incubated at 24° C. and the inhibition of growth is determined photometrically 3-4 days after application.

[2] = tested on: Mycosphaerella arachidis (Cercospora arachidicola); experiment: Mycosphaerella arachidis (Cercospora arachidicola) / liquid culture (early leaf spot); format: cell-based; conditions: liquid culture (potato dextrose broth), growth inhibition photometrically 4-5 days after application, compared to untreated control
Protocol: Example B10: Mycosphaerella arachidis (Cercospora arachidicola)/Liquid Culture (Early Leaf Spot) Conidia of the fungus from cryogenic storage are directly mixed into a nutrient broth (potato dextrose broth) After placing a DMSO solution of test compound into a microtiter plate (96-well format), the nutrient broth containing the fungal spores is added. The test plates are incubated at 24° C. and the inhibition of growth is determined photometrically 4-5 days after application.

Fusarium culmorum = experiment: microbe, parasite or virus in culture; format: cell-based; conditions: read-out: control of Fusarium culmorum
Alternaria solani = Alternaria solani / tomato / leaf disc (early blight); format: in vivo; conditions: foliar, tomato leaf disks cv. Baby, inoculated 2 days after application, assessed 5-7 days after application, compared to untreated control
Protocol: Example B1: Alternaria solani/Tomato/Leaf Disc (Early Blight) Tomato leaf disks cv. Baby are placed on agar in multiwell plates (24-well format) and sprayed with the formulated test compound diluted in water. The leaf disks are inoculated with a spore suspension of the fungus 2 days after application. The inoculated leaf disks are incubated at 23° C./21° C.

[3] = tested on: Monographella nivalis (Microdochium nivale); experiment: Monographella nivalis (Microdochium nivale) / liquid culture (foot rot cereals); format: cell-based; conditions: liquid culture (potato dextrose broth), growth inhibition photometrically 4-5 days after application, compared to untreated control
Protocol: Example B9: Monographella nivalis (Microdochium nivale)/Liquid Culture (Foot Rot Cereals) Conidia of the fungus from cryogenic storage are directly mixed into a nutrient broth (potato dextrose broth). After placing a DMSO solution of test compound into a microtiter plate (96-well format), the nutrient broth containing the fungal spores is added. The test plates are incubated at 24° C. and the inhibition of growth is determined photometrically 4-5 days after application.

[4] = tested on: Glomerella lagenarium (Colletotrichum lagenarium); experiment: Glomerella lagenarium (Colletotrichum lagenarium) / liquid culture (anthracnose); format: cell-based; conditions: Colletotrichum orbiculare, liquid culture (potato dextrose broth), growth inhibition photometrically 3-4 days after application, compared to untreated control
Protocol: Example B3: Glomerella lagenarium (Colletotrichum lagenarium)/Liquid Culture (Anthracnose) Conidia of the fungus from cryogenic storage are directly mixed into a nutrient broth (potato dextrose broth). After placing a DMSO solution of test compound into a microtiter plate (96-well format), the nutrient broth containing the fungal spores is added. The test plates are incubated at 24° C. and the inhibition of growth is measured photometrically 3-4 days after application.

[5] = tested on: Phaeosphaeria nodorum (Septoria nodorum); experiment: Phaeosphaeria nodorum (Septoria nodorum) / wheat / leaf disc preventative (glume blotch); format: in vivo; conditions: Parastagonospora nodorum, foliar, wheat leaf segments cv. Kanzler, inoculated 2 days after application, assessed 5-7 days after application, compared to untreated control
Protocol: Example B8: Phaeosphaeria Nodorum (Septoria nodorum)/Wheat/Leaf Disc Preventative (Glume Blotch) Wheat leaf segments cv. Kanzler are placed on agar in a multiwell plate (24-well format) and sprayed with the formulated test compound diluted in water. The leaf disks are inoculated with a spore suspension of the fungus 2 days after application. The inoculated test leaf disks are incubated at 20° C. and 75% relative humidity under a light regime of 12 h light/12 h darkness in a climate cabinet and the activity of a compound is assessed as percent disease control compared to untreated when an appropriate level of disease damage appears in untreated check leaf disks (5-7 days after application).

Sclerotinia sclerotiorum = Sclerotinia sclerotiorum / liquid culture (cottony rot); format: cell-based; conditions: liquid culture (potato dextrose broth), growth inhibition photometrically 3-4 days after application, compared to untreated control
Protocol: Example B14: Sclerotinia sclerotiorum/Liquid Culture (Cottony Rot) Mycelia fragments of a newly grown liquid culture of the fungus are directly mixed into a nutrient broth (potato dextrose broth). After placing a DMSO solution of test compound into a microtiter plate (96-well format) the nutrient broth containing the fungal material is added. The test plates are incubated at 24° C. and the inhibition of growth is determined photometrically 3-4 days after application.

[6] = tested on: Mycosphaerella graminicola (Septoria tritici); experiment: Mycosphaerella graminicola (Septoria tritici) / liquid culture (Septoria blotch); format: cell-based; conditions: Zymoseptoria tritici, liquid culture (potato dextrose broth), growth inhibition photometrically 4-5 days after application, compared to untreated control
Protocol: Example B15: Mycosphaerella graminicola (Septoria tritici/Liquid Culture (Septoria Blotch) Conidia of the fungus from cryogenic storage are directly mixed into a nutrient broth (potato dextrose broth). After placing a DMSO solution of test compound into a microtiter plate (96-well format), the nutrient broth containing the fungal spores is added. The test plates are incubated at 24° C. and the inhibition of growth is determined photometrically 4-5 days after application.

Pyrenophora teres = Pyrenophora teres / barley / leaf disc preventative (net blotch); format: in vivo; conditions: foliar, barley leaf segments cv. Hasso, inoculated 2 days after application, assessed 5-7 days after application, compared to untreated control
Protocol: Example B12: Pyrenophora teres/Barley/Leaf Disc Preventative (Net Blotch) Barley leaf segments cv. Hasso are placed on agar in a multiwell plate (24-well format) and sprayed with the formulated test compound diluted in water. The leaf segments are inoculated with a spore suspension of the fungus 2 days after application. The inoculated leaf segments are incubated at 20° C. and 65% relative humidity under a light regime of 12 h light/12 h darkness in a climate cabinet and the activity of a compound is assessed as disease control compared to untreated when an appropriate level of disease damage appears in untreated check leaf segments (5-7 days after application).

[7] = tested on: Blumeria graminis f. sp. tritici (Erysiphe graminis f. sp. tritici); experiment: Blumeria graminis f. sp. tritici / wheat / leaf disc preventative (powdery mildew); format: in vivo; conditions: foliar, wheat leaf segments cv. Kanzler, inoculated 1 day after application, assessed 6-8 days after application, compared to untreated control
Protocol: Example B4: Blumeria graminis f. sp. tritici (Erysiphe graminis f. sp. tritici)/Wheat/Leaf Disc Preventative (Powdery Mildew on Wheat) Wheat leaf segments cv. Kanzler are placed on agar in a multiwell plate (24-well format) and sprayed with the formulated test compound diluted in water. The leaf disks are inoculated by shaking powdery mildew infected plants above the test plates 1 day after application. The inoculated leaf disks are incubated at 20° C. and 60% relative humidity under a light regime of 24 h darkness followed by 12 h light/12 h darkness in a climate chamber and the activity of a compound is assessed as percent disease control compared to untreated when an appropriate level of disease damage appears on untreated check leaf segments (6-8 days after application).

C[C@H]1c2sccc2[C@@](C)(c2cnn(C)c2)CN1C(=O)c1nnc(-c2ccc(F)cc2F)s1 (racemic) [Compound P-10, [5-(2,4-difluorophenyl)-1,3,4-thiadiazol-2-yl]-[rac-(4S,7R)-4,7-dimethyl-4-(1-methylpyrazol-4-yl)-5,7-dihydrothieno[2,3-c]pyridin-6-yl]methanone]
≥ 80%: inhibition of growth at 20 ppm [1] | inhibition of growth at 20 ppm [2] | inhibition of growth at 20 ppm (Fusarium culmorum) | pest or weed control at 200 ppm (Alternaria solani) | inhibition of growth at 20 ppm [3] | inhibition of growth at 20 ppm [4] | pest or weed control at 200 ppm [5] | inhibition of growth at 20 ppm (Sclerotinia sclerotiorum) | inhibition of growth at 20 ppm [6]

C[C@H]1c2sccc2[C@@](C)(c2cnn(C)c2)CN1C(=O)c1cc(-c2ccc(F)cc2F)on1 (racemic) [Compound P-12, [5-(2,4-difluorophenyl)isoxazol-3-yl]-[rac-(4S,7R)-4,7-dimethyl-4-(1-methylpyrazol-4-yl)-5,7-dihydrothieno[2,3-c]pyridin-6-yl]methanone]
≥ 80%: inhibition of growth at 20 ppm [1] | inhibition of growth at 20 ppm [2] | pest or weed control at 200 ppm (Alternaria solani) | inhibition of growth at 20 ppm [3] | inhibition of growth at 20 ppm [4] | pest or weed control at 200 ppm [5] | inhibition of growth at 20 ppm (Sclerotinia sclerotiorum) | inhibition of growth at 20 ppm [6]

Cn1cc(C2(C)CN(C(=O)c3cc(-c4ccc(F)cc4F)on3)Cc3sccc32)cn1 (stereo not shown) [Compound P-19, [5-(2,4-difluorophenyl)isoxazol-3-yl]-[4-methyl-4-(1-methylpyrazol-4-yl)-5,7-dihydrothieno[2,3-c]pyridin-6-yl]methanone]
≥ 80%: inhibition of growth at 20 ppm [1] | inhibition of growth at 20 ppm [2] | pest or weed control at 200 ppm (Pyrenophora teres) | pest or weed control at 200 ppm [7] | pest or weed control at 200 ppm (Alternaria solani) | inhibition of growth at 20 ppm [4] | pest or weed control at 200 ppm [5] | inhibition of growth at 20 ppm (Sclerotinia sclerotiorum) | inhibition of growth at 20 ppm [6]

Cn1cc(C2(C)CN(C(=O)c3nnc(-c4ccc(F)cc4F)s3)Cc3ccsc32)cn1 (stereo not shown) [Compound P-22, [5-(2,4-difluorophenyl)-1,3,4-thiadiazol-2-yl]-[7-methyl-7-(1-methylpyrazol-4-yl)-4,6-dihydrothieno[3,2-c]pyridin-5-yl]methanone]
≥ 80%: inhibition of growth at 20 ppm [1] | inhibition of growth at 20 ppm [2] | pest or weed control at 200 ppm (Pyrenophora teres) | inhibition of growth at 20 ppm [3] | inhibition of growth at 20 ppm [4] | pest or weed control at 200 ppm [5] | inhibition of growth at 20 ppm [6]

Cc1c(C2CN(C(=O)c3cc(-c4ccc(F)cc4F)on3)Cc3nnsc32)cnn1C (stereo not shown) [Compound P-27, [5-(2,4-difluorophenyl)isoxazol-3-yl]-[7-(1,5-dimethylpyrazol-4-yl)-6,7-dihydro-4H-thiadiazolo[4,5-c]pyridin-5-yl]methanone]
≥ 80%: pest or weed control at 200 ppm (Pyrenophora teres) | pest or weed control at 200 ppm [7] | pest or weed control at 200 ppm (Alternaria solani) | inhibition of growth at 20 ppm [3] | inhibition of growth at 20 ppm [4] | pest or weed control at 200 ppm [5] | inhibition of growth at 20 ppm [6]

Cc1c(C2CN(C(=O)c3cc(-c4ccc(F)cc4)on3)Cc3sccc32)cnn1C (stereo not shown) [Compound P-30, [4-(1,5-dimethylpyrazol-4-yl)-5,7-dihydro-4H-thieno[2,3-c]pyridin-6-yl]-[5-(4-fluorophenyl)isoxazol-3-yl]methanone]
≥ 80%: inhibition of growth at 20 ppm [1] | inhibition of growth at 20 ppm [2] | pest or weed control at 200 ppm (Pyrenophora teres) | pest or weed control at 200 ppm (Alternaria solani) | inhibition of growth at 20 ppm [3] | inhibition of growth at 20 ppm [4] | pest or weed control at 200 ppm [5] | inhibition of growth at 20 ppm (Sclerotinia sclerotiorum) | inhibition of growth at 20 ppm [6]

Cc1c(C2CN(C(=O)c3cc(-c4ccccc4F)on3)Cc3sccc32)cnn1C (stereo not shown) [Compound P-31, [4-(1,5-dimethylpyrazol-4-yl)-5,7-dihydro-4H-thieno[2,3-c]pyridin-6-yl]-[5-(2-fluorophenyl)isoxazol-3-yl]methanone]
≥ 80%: inhibition of growth at 20 ppm [1] | inhibition of growth at 20 ppm [2] | pest or weed control at 200 ppm (Pyrenophora teres) | pest or weed control at 200 ppm (Alternaria solani) | inhibition of growth at 20 ppm [3] | inhibition of growth at 20 ppm [4] | pest or weed control at 200 ppm [5] | inhibition of growth at 20 ppm [6]

Cc1c(C2CN(C(=O)c3cc(-c4ccccc4F)on3)Cc3ccsc32)cnn1C (stereo not shown) [Compound P-35, [7-(1,5-dimethylpyrazol-4-yl)-6,7-dihydro-4H-thieno[3,2-c]pyridin-5-yl]-[5-(2-fluorophenyl)isoxazol-3-yl]methanone]
≥ 80%: pest or weed control at 200 ppm [7]
